Measured values from patent publication US20260263473A1 (priority 2023, published 2026).

Test: Blood levels of the actives after the three-compartment transdermal patch in a COVID patient
Type: in vivo, human
Details: for time at which blood levels rose to a peak: transdermal patch (48 mg ivermectin, 300 mg doxycycline, 50 mg zinc chelate; gelling agent and water), adhered to left side of chest for 3 days
Procedure: A patient with diabetes and hypertension had acquired COVID as proven by PCR. […] They were treated with a transdermal patch containing higher dose of active antiviral drugs including 48 mg of ivermectin, 300 mg of doxycycline, and 50 mg of zinc chelate. The transdermal patch had three separate compartments, each compartment containing one of ivermectin, doxycycline and zinc chelate. Each active ingredient was formulated with a gelling agent and water. The patch remained adhered to the left side of the chest for 3 days. Blood levels of each of the ivermectin, doxycycline and zinc chelate rose to a peak at 10 hrs, The patient's cough continued but slowly resolved and they were not breathless. […] The patient oxygen saturation improved within 2 days with oximetry rising to 96%.

[1] = orally treated patients (comparison)
[2] = transdermal patch, adhered to chest for 3 days, one patient

Compound	persistence of blood levels (area under the curve) [1] [h]	time at which blood levels rose to a peak (one patient) [h]	area under the curve compared with single oral medications [2]	persistence of blood levels (area under the curve) [2] [h]
C[C@H]1c2cccc(O)c2C(=O)C2=C(O)[C@]3(O)C(=O)C(C(N)=O)=C(O)[C@@H](N(C)C)[C@@H]3[C@@H](O)[C@@H]21 [doxycycline]	48	10	greater than that of single oral medications	140
ivermectin	48	10	greater than that of single oral medications	140
